Common to all, as to assay type: cell-based
In series [1] the target is T1, ATP-dependent translocase ABCB1 (Homo sapiens, UniProt P08183). Kind of series: Inhibition of human MDR1 expressed in mouse L5178 cells assessed as fluorescence activity at 11.2 uM by rhodamine 123 exclusion test. To be noted: l5178, 11.2 µM.
In series [2] the target is T1, ATP-dependent translocase ABCB1. Kind of series: Inhibition of human MDR1 expressed in mouse L5178 cells assessed as fluorescence activity ratio at 11.2 uM by rhodamine 123 exclusion test relative to wild type mouse L5178 cells. The settings on record: l5178, 11.2 µM.
The target is the same in series [3]. Briefly: Inhibition of human MDR1 expressed in mouse L5178 cells assessed as fluorescence activity at 112 uM by rhodamine 123 exclusion test. To be noted: l5178, 112 µM.
Series [4] has the same target. Briefly: Inhibition of human MDR1 expressed in mouse L5178 cells assessed as fluorescence activity ratio at 112 uM by rhodamine 123 exclusion test relative to wild type mouse L5178 cells. The settings on record: l5178, 112 µM.
Series [5] shares this target. Kind of series: Inhibition of human MDR1 expressed in mouse L5178 cells assessed as fluorescence activity at 23 uM by rhodamine 123 exclusion test. To be noted: l5178, 23 µM.

T1 sequence (P08183 whole entry): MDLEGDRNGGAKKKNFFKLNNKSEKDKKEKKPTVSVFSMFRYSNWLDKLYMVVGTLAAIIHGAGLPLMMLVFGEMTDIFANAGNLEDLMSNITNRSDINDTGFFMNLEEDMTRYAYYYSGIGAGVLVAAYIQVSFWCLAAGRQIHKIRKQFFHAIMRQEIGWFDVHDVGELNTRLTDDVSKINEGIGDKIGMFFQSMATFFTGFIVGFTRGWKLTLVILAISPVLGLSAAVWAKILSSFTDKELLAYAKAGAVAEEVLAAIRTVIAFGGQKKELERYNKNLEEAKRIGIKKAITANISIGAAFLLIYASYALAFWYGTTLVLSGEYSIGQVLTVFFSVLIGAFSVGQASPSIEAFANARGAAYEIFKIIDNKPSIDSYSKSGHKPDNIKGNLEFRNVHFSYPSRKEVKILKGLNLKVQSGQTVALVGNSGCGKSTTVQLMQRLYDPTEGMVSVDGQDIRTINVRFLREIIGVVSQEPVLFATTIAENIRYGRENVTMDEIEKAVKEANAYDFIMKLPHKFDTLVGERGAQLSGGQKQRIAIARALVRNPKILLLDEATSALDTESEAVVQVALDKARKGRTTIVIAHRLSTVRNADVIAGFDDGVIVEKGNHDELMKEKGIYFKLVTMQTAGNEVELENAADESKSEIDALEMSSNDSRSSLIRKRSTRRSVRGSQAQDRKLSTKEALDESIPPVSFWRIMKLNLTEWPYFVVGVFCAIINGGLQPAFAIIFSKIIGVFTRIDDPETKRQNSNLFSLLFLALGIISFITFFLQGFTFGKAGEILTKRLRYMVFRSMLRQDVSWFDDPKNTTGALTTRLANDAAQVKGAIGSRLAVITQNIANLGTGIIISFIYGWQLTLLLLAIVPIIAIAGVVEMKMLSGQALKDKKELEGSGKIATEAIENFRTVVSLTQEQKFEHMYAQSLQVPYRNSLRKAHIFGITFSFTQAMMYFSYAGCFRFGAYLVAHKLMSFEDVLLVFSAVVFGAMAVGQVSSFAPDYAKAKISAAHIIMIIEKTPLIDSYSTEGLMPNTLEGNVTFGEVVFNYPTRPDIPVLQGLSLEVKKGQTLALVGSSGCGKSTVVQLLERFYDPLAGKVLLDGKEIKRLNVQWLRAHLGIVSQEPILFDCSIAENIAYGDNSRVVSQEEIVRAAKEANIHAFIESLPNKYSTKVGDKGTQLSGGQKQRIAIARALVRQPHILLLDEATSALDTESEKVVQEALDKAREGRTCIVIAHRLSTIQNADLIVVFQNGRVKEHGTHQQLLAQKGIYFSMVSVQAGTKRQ

On to `C=C1[C@H](OC(C)=O)[C@@H](OC(C)=O)[C@@H](OC(C)=O)C(C)(C)/C=C/[C@H](C)C(=O)[C@@]2(OC(C)=O)C[C@H](C)[C@H](OC(=O)c3ccccc3)[C@@H]2[C@H]1OC(C)=O` (relative stereo), for which the results for the Flu intensity in series [1] and in series [3] were 31.46 and 217.81, respectively. The values for the Ratio in series [2] and in series [4] were 2.6 and 18.02, respectively.
Turning to `C=C1[C@H](OC(C)=O)[C@@H](OC(C)=O)[C@@H](OC(C)=O)C(C)(C)/C=C/[C@H](C)C(=O)[C@@]2(OC(C)=O)C[C@H](C)[C@H](OC(C)=O)[C@@H]2[C@H]1OC(=O)c1ccccc1` (relative stereo), the Flu intensity is reported as 33.71 in series [1] and 354.21 in series [3]. The Ratio stood at 2.79 in series [2] and 29.29 in series [4].
Take `COc1ccc(CCN(C)CCCC(C#N)(c2ccc(OC)c(OC)c2)C(C)C)cc1OC` (stereo not drawn): the Flu intensity in series [5] was determined as 158.9.
Regarding `C=C1[C@H](OC(C)=O)[C@H]2[C@@H](OC(=O)c3ccccc3)[C@@H](C)C[C@]2(O)C(=O)[C@@H](C)/C=C/C(C)(C)C(=O)[C@H](OC(C)=O)[C@H]1OC(C)=O` (relative stereo), the Flu intensity in series [1] turned out to be 148.64; in series [3] it was 277.08. For the same compound, the Ratio was 12.29 in series [2] and 22.92 in series [4].
